According to patent US7138361B2, “Herbicidal heterocycles” (E. I. du Pont de Nemours and Company, priority 2000, dated 2006):

Legend:
Format in all cases: in vivo
[1] = system: Sunflower; test: Test C preemergence; settings: Rate 250 g/ha, scale 0 to 100, 0 no effect, 100 complete control
[2] = system: Nightshade; test: Test C preemergence; settings: Rate 500 g/ha, visual evaluation after 12 to 14 days
[3] = system: wild oat (Avena fatua); test: Test B postemergence; settings: Rate 125 g/ha, scale 0 to 100, 0 no effect, 100 complete control
Summary of the method: (§1)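 Post-treatment, species sat 13–15 days under greenhouse conditions before visual scoring against controls, 0 (no effect) through 100 (complete control). Application preemergence to sown seeds or postemergence at 1- to 4-leaf stage, using a non-phytotoxic solvent/surfactant formulation.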

[4] = system: corn (Zea mays); test: Test B postemergence
Summary of the method: as §1

[5] = system: barnyardgrass (Echinochloa crus-galli); test: Test B postemergence
Summary of the method: as §1

[6] = system: wheat (Triticum aestivum); test: Test B postemergence; settings: Rate 125 g/ha, scale 0 to 100, 0 no effect, 100 complete control
Summary of the method: as §1

[7] = system: rice (Oryza saliva); test: Test C flooded paddy test; settings: for Rice plant response rating: Flooded Paddy, scale 0 to 100, 0 no effect, 100 complete control; for Plant response rating, Rice: flooded paddy test, scale 0 to 100 (0 no effect, 100 complete control)
Summary of the method: (§2)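 Greenhouse-maintained for 12 to 14 days after treatment, the paddy plants (2-leaf stage at application) were scored visually against controls. A score of 0 denotes no effect and a score of 100 denotes complete control.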

[8] = system: duck salad (Heteranthera limosa); test: Test C flooded paddy test; settings: for Ducksalad plant response rating: Flooded Paddy, scale 0 to 100, 0 no effect, 100 complete control; for Plant response rating, Ducksalad: flooded paddy test, scale 0 to 100 (0 no effect, 100 complete control)
Summary of the method: as §2

[9] = system: barnyardgrass (Echinochloa crus-galli); test: Test C flooded paddy test; settings: for Barnyardgrass plant response rating: Flooded Paddy, scale 0 to 100, 0 no effect, 100 complete control; for Plant response rating, Barnyardgrass: flooded paddy test, scale 0 to 100 (0 no effect, 100 complete control)
Summary of the method: as §2

[10] = system: smallflower flatsedge (Cyperus difformis); test: Test C flooded paddy test; settings: for Flatsedge plant response rating: Flooded Paddy, scale 0 to 100, 0 no effect, 100 complete control; for Plant response rating, Flatsedge: flooded paddy test, scale 0 to 100 (0 no effect, 100 complete control)
Summary of the method: as §2

[11] = system: pigweed (Amaranthus retroflexus); test: Test C preemergence
Summary of the method: (§3)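 Herbicidal effect is a visual 0–100 score (100 = complete control) assigned versus untreated plants, 12 to 14 days after spraying in the greenhouse. Test compounds were applied in a non-phytotoxic, surfactant-containing solvent.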

[12] = system: lambsquarters (Chenopodium album); test: Test C preemergence
Summary of the method: as §3

[13] = system: Nightshade; test: Test C preemergence
[14] = system: corn (Zea mays); test: Test C preemergence
Summary of the method: as §3

[15] = system: soybean (Glycine max); test: Test C preemergence
Summary of the method: as §3

[16] = system: kochia (Kochia scoparia); test: Test C preemergence
Summary of the method: as §3

[17] = system: yellow nutsedge (Cyperus esculentus); test: Test C preemergence
Summary of the method: as §3

[18] = system: woolly cupgrass (Eriochloa villosa); test: Test C preemergence
Summary of the method: as §3

[19] = system: johnsongrass (Sorghum halepense); test: Test C preemergence
Summary of the method: as §3

[20] = Rate 125 g/ha, scale 0 to 100, 0 no effect, 100 complete control
[21] = Rate 500 g/ha, scale 0 to 100, 0 is no effect, 100 is complete control, 13 to 15 days
[22] = preemergence, Rate 62 g/ha, scale 0 to 100
[23] = preemergence, Rate 500 g/ha, visual evaluation after 12 to 14 days
[24] = preemergence, Rate 250 g/ha, scale 0 to 100, 0 no effect, 100 complete control

Q: For Cc1ccc(N2CCC(n3ccc(C(C)(C)C)n3)C2=O)cc1I (centres unmarked) [Compound 122], which “Plant response rating, Sunflower” value [1] is on record?
A: 0

Q: What about the “Plant response rating (0 to 100), Nightshade” value [2] of the same molecule?
A: 90

Q: What about the “Plant response rating, Wild Oat” value [3] of the same molecule?
A: 0

Q: What about the “Plant response rating, Corn” value [4, 20] of the same molecule?
A: 0

Q: What about the “Plant response rating, Corn” value [4, 21] of the same molecule?
A: 0

Q: What about the “Plant response rating, Barnyardgrass” value [5, 20] of the same molecule?
A: 0

Q: What about the “Plant response rating, Barnyardgrass” value [5, 21] of the same molecule?
A: 0

Q: And the “Plant response rating, Wheat” value [6]?
A: 0

Q: What about the “Rice plant response rating” value ([7]; Rate 250 g/ha) of the same molecule?
A: 0

Q: What about the “Rice plant response rating” value ([7]; Rate 500 g/ha) of the same molecule?
A: 0

Q: And the “Plant response rating, Rice” value ([7]; Rate 62 g/ha)?
A: 0

Q: And the “Plant response rating, Rice” value ([7]; Rate 125 g/ha)?
A: 0

Q: What about the “Ducksalad plant response rating” value ([8]; Rate 250 g/ha) of the same molecule?
A: 30

Q: What about the “Ducksalad plant response rating” value ([8]; Rate 500 g/ha) of the same molecule?
A: 60

Q: What about the “Plant response rating, Ducksalad” value ([8]; Rate 62 g/ha) of the same molecule?
A: 20

Q: And the “Plant response rating, Ducksalad” value ([8]; Rate 125 g/ha)?
A: 20

Q: And the “Barnyardgrass plant response rating” value ([9]; Rate 250 g/ha)?
A: 0

Q: What about the “Barnyardgrass plant response rating” value ([9]; Rate 500 g/ha) of the same molecule?
A: 100

Q: What about the “Plant response rating, Barnyardgrass” value ([9]; Rate 62 g/ha) of the same molecule?
A: 0

Q: And the “Plant response rating, Barnyardgrass” value ([9]; Rate 125 g/ha)?
A: 0

Q: And the “Flatsedge plant response rating” value ([10]; Rate 250 g/ha)?
A: 80

Q: And the “Flatsedge plant response rating” value ([10]; Rate 500 g/ha)?
A: 100

Q: And the “Plant response rating, Flatsedge” value ([10]; Rate 62 g/ha)?
A: 0

Q: And the “Plant response rating, Flatsedge” value ([10]; Rate 125 g/ha)?
A: 80

Q: And the “Plant response rating, Pigweed” value [11, 20]?
A: 20

Q: What about the “Plant response rating, Pigweed” value [11, 22] of the same molecule?
A: 0

Q: And the “Plant response rating (0 to 100), Pigweed” value [11, 23]?
A: 100

Q: And the “Plant response rating, Pigweed” value [11, 24]?
A: 20

Q: What about the “Plant response rating, Lambsquarters” value [12, 20] of the same molecule?
A: 100

Q: And the “Plant response rating, Lambsquarters” value [12, 22]?
A: 100

Q: And the “Plant response rating (0 to 100), Lambsquarters” value [12, 23]?
A: 100

Q: And the “Plant response rating, Lambsquarters” value [12, 24]?
A: 100

Q: And the “Plant response rating, Nightshade” value ([13]; Rate 62 g/ha, scale 0 to 100)?
A: 0

Q: What about the “Plant response rating, Nightshade” value [13, 20] of the same molecule?
A: 0

Q: What about the “Plant response rating, Nightshade” value ([13]; Rate 250 g/ha, scale 0 to 100, 0 no effect, 100 complete control) of the same molecule?
A: 30

Q: And the “Plant response rating, Corn” value [14, 20]?
A: 0

Q: What about the “Plant response rating, Corn” value [14, 22] of the same molecule?
A: 0

Q: And the “Plant response rating (0 to 100), Corn” value [14, 23]?
A: 0

Q: And the “Plant response rating, Corn” value [14, 24]?
A: 0

Q: And the “Plant response rating, Soybean” value [15, 20]?
A: 0

Q: What about the “Plant response rating, Soybean” value [15, 22] of the same molecule?
A: 0

Q: And the “Plant response rating (0 to 100), Soybean” value [15, 23]?
A: 0

Q: What about the “Plant response rating, Soybean” value [15, 24] of the same molecule?
A: 0

Q: What about the “Plant response rating, Kochia” value [16, 20] of the same molecule?
A: 100

Q: What about the “Plant response rating, Kochia” value [16, 22] of the same molecule?
A: 100

Q: What about the “Plant response rating (0 to 100), Kochia” value [16, 23] of the same molecule?
A: 100

Q: And the “Plant response rating, Kochia” value [16, 24]?
A: 100

Q: What about the “Plant response rating, Nutsedge” value [17, 20] of the same molecule?
A: 0

Q: And the “Plant response rating, Nutsedge” value [17, 22]?
A: 0

Q: And the “Plant response rating (0 to 100), Nutsedge” value [17, 23]?
A: 0

Q: What about the “Plant response rating, Nutsedge” value [17, 24] of the same molecule?
A: 0

Q: And the “Plant response rating, Cupgrass, Woolly” value [18, 20]?
A: 20

Q: And the “Plant response rating, Cupgrass, Woolly” value [18, 22]?
A: 0

Q: What about the “Plant response rating (0 to 100), Cupgrass, Woolly” value [18, 23] of the same molecule?
A: 100

Q: And the “Plant response rating, Cupgrass, Woolly” value [18, 24]?
A: 100

Q: What about the “Plant response rating, Johnsongrass” value [19, 20] of the same molecule?
A: 0

Q: What about the “Plant response rating, Johnsongrass” value [19, 22] of the same molecule?
A: 0

Q: What about the “Plant response rating (0 to 100), Johnsongrass” value [19, 23] of the same molecule?
A: 20

Q: And the “Plant response rating, Johnsongrass” value [19, 24]?
A: 0
